Measurements published in patent publication US10787444B2, “Compounds for the modulation of myc activity” (Syros Pharmaceuticals, Inc., priority 2015, dated 2020).
Structures can show the parent of a compound that is named as a salt. Where two headings read alike, the source gives them in different places.

Legend:
[1] = molecular target: T1, c-Myc/Max/Ebox DNA (Homo sapiens, UniProt P01106); experiment: c-Myc/Max/Ebox DNA AlphaScreen Assay; type: binding; conditions: calculated IC50 class
T1 construct: his6 (cleaved yes)
T1 sequence (P01106 whole entry): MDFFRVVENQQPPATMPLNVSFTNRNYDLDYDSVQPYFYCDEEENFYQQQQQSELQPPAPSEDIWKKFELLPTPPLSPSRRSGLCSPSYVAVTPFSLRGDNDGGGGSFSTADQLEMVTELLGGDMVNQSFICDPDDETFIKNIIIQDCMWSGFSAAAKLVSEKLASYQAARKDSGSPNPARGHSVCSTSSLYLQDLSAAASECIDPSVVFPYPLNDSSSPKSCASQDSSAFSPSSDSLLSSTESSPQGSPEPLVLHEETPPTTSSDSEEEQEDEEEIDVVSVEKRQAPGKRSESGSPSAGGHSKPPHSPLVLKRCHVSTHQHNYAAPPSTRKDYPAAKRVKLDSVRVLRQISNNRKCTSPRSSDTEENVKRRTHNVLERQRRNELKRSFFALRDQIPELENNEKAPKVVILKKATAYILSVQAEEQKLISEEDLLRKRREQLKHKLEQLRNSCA
Summary of the method: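 Compounds were preincubated with free c-Myc (20 nM), biotinylated single-Ebox DNA (10 nM) and Ni acceptor beads before his6-Max (5 nM) and streptavidin donor beads were added. Buffer was 50 mM HEPES pH 8.0, 150 mM NaCl, BSA, Tween20, glycogen and DTT, with DMSO ≤2%. After 2 h incubation, AlphaScreen signal was read at 680 nm excitation and 520–620 nm emission.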

[2] = system: human small lung cancer cell line H2171; experiment: Cell Viability Assay (ATPlite); type: cell-based; conditions: read-out: H2171 Activity
Summary of the method: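 H2171 cells were plated at 20,000 cells/mL and dosed immediately by pin transfer with a 10-point dose series in DMSO. After three days at 37° C, ATPlite luminescence served as the viability readout.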

[3] = Homo sapiens, NCI-H2171, 72 h, Table 2, compounds of FIG. 1, H2171 cells, three days, ATPlite, calculated IC50 class
[4] = Homo sapiens, NCI-H2171, 72 h, Table 3, compounds of FIG. 2, H2171 cells, three days, ATPlite, calculated IC50 class
[5] = Table 2, compounds of FIG. 1, H2171 cells, three days, ATPlite, calculated IC50 class

IC50 ([1]; Table 2, compounds of FIG. 1)	IC50 [2, 3]	SMILES	also measured
< 300 nM	< 300 nM	CCC(C)NCCC(=O)Nc1sc2c(c1-c1nc3cc(-c4ccncc4)ccc3s1)CCNC2C [Compound 590, 3-(((S)-sec-butyl)amino)-N—((R)-7-methyl-3-(5-pyridin-4-yl)benzo[d]thiazol-2-yl)-4,5,6,7-tetrahydrothieno[2,3-c]pyridin-2-yl)propanamide]	
		CC(=O)Nc1sc2c(c1-c1nc3cc(C(F)(F)F)ccc3s1)CCNC2 [Compound 204, N-(3-(5-(trifluoromethyl)benzo[d]thiazol-2-yl)-4,5,6,7-tetrahydrothieno[2,3-c]pyridin-2-yl)acetamide]	IC50 ([1]; Table 3, compounds of FIG. 2): 1000 to 10000 nM; IC50 [2, 4]: 1000 to 10000 nM
< 300 nM	< 300 nM	CCC(C)NCCC(=O)Nc1sc2c(c1-c1nc3cc(F)ccc3s1)CCN(C(C)C)C2 (stereo not shown) [Compound 126, 3-(sec-butylamino)-N-(3-(5-fluorobenzo[d]thiazol-2-yl)-6-isopropyl-4,5,6,7-tetrahydrothieno[2,3-c]pyridin-2-yl)propanamide]	
< 300 nM	< 300 nM	CC(C)NCCC(=O)Nc1sc2c(c1-c1nc3c(Br)cccc3s1)CCNC2 [compound 516]	
300 to 1000 nM	300 to 1000 nM	CC(C)N1CCc2c(sc(NC(=O)CCNC(C)(C)C)c2-c2nc3ccccc3s2)C1 [Compound 127, N-(3-(benzo[d]thiazol-2-yl)-6-isopropyl-4,5,6,7-tetrahydrothieno[2,3-c]pyridin-2-yl)-3-(tert-butylamino)propanamide]	
< 300 nM	< 300 nM	COCCNCCC(=O)Nc1sc2c(c1-c1nc3c(Br)cccc3s1)CCNC2 [compound 559]	
300 to 1000 nM	300 to 1000 nM	CC(C)NCCC(=O)Nc1sc2c(c1-c1nc3cc(-c4ccncc4)ccc3s1)CCNC2 [Compound 160, 3-(Isopropylamino)-N-(3-(5-(pyridin-4-yl)benzo[d]thiazol-2-yl)-4,5,6,7-tetrahydrothieno[2,3-c]pyridin-2-yl)propanamide dihydrochloride]	
< 300 nM	< 300 nM	COCCNCCC(=O)Nc1sc2c(c1-c1nc3c(NC4COC4)cccc3s1)CCNC2 [compound 600]	
< 300 nM	< 300 nM	COCCNCCC(=O)Nc1sc2c(c1-c1nc3ccc(-c4cnn(C(C)C)c4)cc3s1)CCNC2 [compound 358]	
< 300 nM	< 300 nM	CC(C)NCCC(=O)Nc1sc2c(c1-c1nc3cc(N4CCOCC4)ccc3s1)CCNC2 [compound 302]	
< 300 nM	< 300 nM	CC[C@H](C)NCCC(=O)Nc1sc2c(c1-c1nc3ccccc3s1)CCN(C(C)C)C2 [Compound 135, (S)—N-(3-(benzo[d]thiazol-2-yl)-6-isopropyl-4,5,6,7-tetrahydrothieno[2,3-c]pyridin-2-yl)-3-(sec-butylamino)propanamide]	
< 300 nM	< 300 nM	CC[C@@H](C)NCCC(=O)Nc1sc2c(c1-c1nc3ccccc3s1)CCN(C(C)C)C2 [Compound 140, (R)—N-(3-(benzo[d]thiazol-2-yl)-6-isopropyl-4,5,6,7-tetrahydrothieno[2,3-c]pyridin-2-yl)-3-(sec-butylamino)propanamide]	
1000 to 10000 nM	1000 to 10000 nM	CCC(=O)NCCC(=O)Nc1sc2c(c1-c1nc3ccccc3s1)CCNC2 [Compound 199, N-(3-(benzo[d]thiazol-2-yl)-4,5,6,7-tetrahydrothieno[2,3-c]pyridin-2-yl)-3-propionamidopropanamide]	
< 300 nM	< 300 nM	COCCNCCC(=O)Nc1sc2c(c1-c1nc3cc(-c4ccc(C#N)nc4)ccc3s1)CCNC2 [compound 405]	
< 300 nM	< 300 nM	CCC(C)NCCC(=O)Nc1sc2c(c1-c1nc3cc4c(cc3s1)OCO4)CCNC2 (stereo not shown) [Compound 555, N-(3-([1,3]Dioxolo[4′,5′:4,5]benzo[1,2-d]thiazol-6-yl)-4,5,6,7-tetrahydrothieno[2,3-c]pyridin-2-yl)-3-(sec-butylamino)propanamide]	IC50 ([1]; Table 2, compounds of FIG. 1, listed as 116): 1000 to 10000 nM; IC50 ([2]; Table 2, compounds of FIG. 1, H2171 cells, three days, ATPlite, calculated IC50 class, listed as 116): 1000 to 10000 nM
< 300 nM	< 300 nM	CCOC(=O)Cn1cc(-c2ccc3sc(-c4c(NC(=O)CCNCCOC)sc5c4CCNC5)nc3c2)cn1 [compound 445]	
1000 to 10000 nM	300 to 1000 nM	COCCNCCC(=O)Nc1sc2c(c1-c1nc3cc(-c4cccnc4)ccc3s1)CC(C)NC2C (stereo not shown) [Compound 533, N-(5,7-Dimethyl-3-(5-(pyridin-3-yl)benzo[d]thiazol-2-yl)-4,5,6,7-tetrahydrothieno[2,3-c]pyridin-2-yl)-3-((2-methoxyethyl)amino)propanamide]	

IC50 ([1]; Table 2, compounds of FIG. 1)	IC50 [2, 3]	SMILES	also measured
< 300 nM	< 300 nM	O=C(O)CCOCCOCCOCCOCCOCCOCCNCCC(=O)Nc1sc2c(c1-c1nc3ccccc3s1)CCNC2 [Compound 623]	
300 to 1000 nM		COCCNCCC(=O)Nc1sc2c(c1-c1nc3ccccc3s1)CC(C)NC2C (stereo not shown) [Compound 315, N-(3-(Benzo[d]thiazol-2-yl)-5,7-dimethyl-4,5,6,7-tetrahydrothieno[2,3-c]pyridin-2-yl)-3-((2-methoxyethyl)amino)propanamide]	IC50 [2, 5]: < 300 nM
< 300 nM	< 300 nM	CC[C@H](C)NCCC(=O)Nc1sc2c(c1-c1nc3cc(C(F)(F)F)ccc3s1)CCNC2 [Compound 152, (S)-3-(sec-butylamino)-N-(3-(5-(trifluoromethyl)benzo[d]thiazol-2-yl)-4,5,6,7-tetrahydrothieno[2,3-c]pyridin-2-yl)propanamide]	
1000 to 10000 nM	300 to 1000 nM	O=C(CCNCCc1cccnc1)Nc1sc2c(c1-c1nc3ccccc3s1)CCNC2 [Compound 136, N-(3-(benzo[d]thiazol-2-yl)-4,5,6,7-tetrahydrothieno[2,3-c]pyridin-2-yl)-3-((2-(pyridin-3-yl)ethyl)amino) propanamide]	
		CC(=O)Nc1sc2c(c1-c1nc3cc4c(cc3s1)OCO4)CCNC2 [Compound 237, N-(3-([1,3]Dioxolo[4′,5′:4,5]benzo[1,2-d]thiazol-6-yl)-4,5,6,7-tetrahydrothieno[2,3-c]pyridin-2-yl)acetamide]	IC50 ([1]; Table 3, compounds of FIG. 2): 1000 to 10000 nM; IC50 [2, 4]: 300 to 1000 nM
< 300 nM	< 300 nM	COCCNCCC(=O)Nc1sc2c(c1-c1nc3cc(C(F)(F)F)ccc3s1)CC(C)NC2 (single isomer, unassigned) [Compound 550, 3-((2-Methoxyethyl)amino)-N-(5-methyl-3-(5-(trifluoromethyl)benzo[d]thiazol-2-yl)-4,5,6,7-tetrahydrothieno[2,3-c]pyridin-2-yl)propanamide]	
< 300 nM	< 300 nM	COCCNCCC(=O)Nc1sc2c(c1-c1nc3cc(-c4ccc(C(=O)N5CCOCC5)cc4)ccc3s1)CCNC2 [compound 334]	
		CC(=O)Nc1sc2c(c1-c1nc3ccccc3s1)CCN(C(C)C)C2 [Compound 200, N-(3-(benzo[d]thiazol-2-yl)-6-isopropyl-4,5,6,7-tetrahydrothieno[2,3-c]pyridin-2-yl)acetamide]	IC50 ([1]; Table 3, compounds of FIG. 2): 300 to 1000 nM; IC50 ([2]; Homo sapiens, NCI-H2171, 72 h): 1000 to 10000 nM
< 300 nM	< 300 nM	CCC(C)NCCC(=O)Nc1sc2c(c1-c1nc3cc(F)ccc3s1)CCNC2 (stereo not shown) [Compound 123, 3-(sec-butylamino)-N-(3-(5-fluorobenzo[d]thiazol-2-yl)-4,5,6,7-tetrahydrothieno[2,3-c]pyridin-2-yl) propanamide]	
300 to 1000 nM		COCCNCCC(=O)Nc1sc2c(c1-c1nc3ccccc3s1)CC(C)NC2C (stereo not shown) [Compound 506, N-(3-(Benzo[d]thiazol-2-yl)-5,7-dimethyl-4,5,6,7-tetrahydrothieno[2,3-c]pyridin-2-yl)-3-((2-methoxyethyl)amino)propanamide]	IC50 [2, 5]: 1000 to 10000 nM
< 300 nM	< 300 nM	COCCNCCC(=O)Nc1sc2c(c1-c1nc3ccc(-c4cnoc4)cc3s1)CCNC2 [compound 469]	
1000 to 10000 nM	< 300 nM	CC[C@H](C)NCCC(=O)Nc1sc2c(c1-c1nc3ccccc3s1)CCN(C1CC(F)(F)C1)C2 [Compound 619, (S)—N-(3-(benzo[d]thiazol-2-yl)-6-(3,3-difluorocyclobutyl)-4,5,6,7-tetrahydrothieno[2,3-c]pyridin-2-yl)-3-(sec-butylamino)propanamide]	
> 10000 nM	< 300 nM	COCCN(CCOC)CCC(=O)Nc1sc2c(c1-c1nc3ccccc3s1)CCNC2 [Compound 309, N-(3-(benzo[d]thiazol-2-yl)-4,5,6,7-tetrahydrothieno[2,3-c]pyridin-2-yl)-3-(bis(2-methoxyethyl)amino)propanamide]	
< 300 nM	< 300 nM	CC(C)N1CCc2c(sc(NC(=O)CCNCc3cn[nH]c3)c2-c2nc3ccccc3s2)C1 [Compound 155, 3-(((1H-pyrazol-4-yl)methyl)amino)-N-(3-(benzo[d]thiazol-2-yl)-6-isopropyl-4,5,6,7-tetrahydrothieno[2,3-c]pyridin-2-yl)propanamide]	
< 300 nM	< 300 nM	CC(C)NCCC(=O)Nc1sc2c(c1-c1nc3c(S(C)(=O)=O)cccc3s1)CCNC2 [compound 553]	
< 300 nM	< 300 nM	COCCNCCC(=O)Nc1sc2c(c1-c1nc3cc(-c4ccn[nH]4)ccc3s1)CCNC2 [compound 406]	
< 300 nM	< 300 nM	CCC(C)NCCC(=O)Nc1sc2c(c1-c1nc3cc(-n4cnc(C)c4)ccc3s1)CCNC2 (stereo not shown) [compound 149]	
